The results in this text go back to publication PMC10980263, “Cryo-EM structures of the human NaS1 and NaDC1 transporters revealed the elevator transport and allosteric regulation mechanism” (Science Advances, 2024).

Changes are numbered by the printed parent chain.

Test [1] deals with T1, NaDC1 (Homo sapiens, UniProt Q13183).
T1 sequence (Q13183 1-592): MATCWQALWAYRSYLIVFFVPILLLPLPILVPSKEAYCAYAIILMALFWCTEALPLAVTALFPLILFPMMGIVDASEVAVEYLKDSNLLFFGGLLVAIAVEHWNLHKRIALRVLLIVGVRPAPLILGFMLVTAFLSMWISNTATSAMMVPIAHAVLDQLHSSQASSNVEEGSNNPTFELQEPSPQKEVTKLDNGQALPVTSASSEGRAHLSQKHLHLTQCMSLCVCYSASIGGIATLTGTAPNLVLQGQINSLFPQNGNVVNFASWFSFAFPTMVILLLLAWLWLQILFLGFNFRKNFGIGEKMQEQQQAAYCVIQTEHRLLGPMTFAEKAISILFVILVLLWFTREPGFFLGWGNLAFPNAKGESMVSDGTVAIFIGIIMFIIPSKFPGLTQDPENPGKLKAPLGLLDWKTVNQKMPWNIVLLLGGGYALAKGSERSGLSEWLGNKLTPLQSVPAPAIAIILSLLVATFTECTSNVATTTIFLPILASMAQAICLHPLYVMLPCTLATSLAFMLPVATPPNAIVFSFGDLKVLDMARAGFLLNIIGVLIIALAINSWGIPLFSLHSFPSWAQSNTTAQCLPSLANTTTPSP
Description: whole-cell patch clamp, transfected HEK293T. It is filed as cell-based. The arrangement: gene SLC13A2; full length, homodimer; GFP and FLAG tagged in HEK293T for currents. The conditions noted are these: gradient of citrate concentrations; 140 mM NaCl bath, pH 7.4. Background: The patch-clamp technique gives a direct electrical read-out from membranes.

Test [2] has as its target T1, NaDC1. The test can be described thus: CD thermal melting at […] nm. The class given is binding. Further details: gene SLC13A2; full length, homodimer; N-terminal FLAG purified from HEK293F (structures, natural variant I550V); GFP and FLAG tagged in HEK293T for currents. The conditions noted are these: absolute Tm in presence of citrate, not a shift; whether WT carries I550V not stated.

The target in test [3] is T2, NaDC1 (Homo sapiens, UniProt Q13183, I550V).
T2 construct: gene SLC13A2; full length, homodimer; N-terminal FLAG purified from HEK293F (structures, natural variant I550V); GFP and FLAG tagged in HEK293T for currents
T2 sequence (Q13183 1-592 I550V): T1 sequence (Q13183 1-592) with I550V
The test can be described thus: cryo-EM structure ([…] Å). It is filed as binding. The conditions noted are these: 10 mM sodium citrate; substrate site; Na+ at Na1 and Na2.

The target of test [4] is T3, NaDC1 (Homo sapiens, UniProt Q13183, T142A).
T3 construct: gene SLC13A2; full length, homodimer; N-terminal FLAG purified from HEK293F (structures, natural variant I550V); GFP and FLAG tagged in HEK293T for currents
T3 sequence (Q13183 1-592 T142A): T1 sequence (Q13183 1-592) with T142A
The test can be described thus: CD thermal melting at […] nm. The class given is binding. The conditions noted are these: absolute Tm in presence of citrate, not a shift.

Regarding `O=C(O)CC(O)(CC(=O)O)C(=O)O` [citrate], the “whole-cell patch clamp, transfected HEK293T” value at NaDC1 [1] is listed as “wild-type (WT) NaDC1 is indeed capable of transporting citrate”. Also, the figures for the Tm on NaDC1 [2] and on NaDC1 [4] were 62.9 ± 0.3 °C and 56.4 ± 0.3 °C, respectively. Besides, the “cryo-EM structure (2.7 Å)” value at NaDC1 [3] is “we discern two sodium ions and one citrate molecule distinctly situated within a single protomer”.
